Data taken from patent US20210147466A1, “IMPROVED PROCESSES FOR THE PREPARATION OF GUADECITABINE AND INTERMEDIATES THEREOF” (TEVA CZECH INDUSTRIES s.r.o., priority 2017, published 2021).
Read-outs that look alike come from different tables or passages of the source.

Experiments:
[1] = undergoes hydrolytic degradation; cited from earlier work
[2] = Stability in aqueous media (statements in the description); assay type: physicochemical; settings: aqueous phase of chromatography on C18 column
[3] = Stability of guadecitabine sodium form A in methanol water (9/1 v/v) at 40° C. (HPLC contents); assay type: physicochemical
Description: Analytical HPLC Method Used for Measuring Guadecitabine Purity Column: 150×3.0 mm Luna Omega Polar C18, 1.6 μm at 40° C. Solvent A: 0.15 mL/l formic acid in water, pH adjusted with ammonia to 3.6. Solvent B: acetonitrile Gradient program: [table] [table] Example 23: Comparison of Guadecitabine Sodium Form A Stability in Water at 25° C. and Methanol Water (9/1 v/v) at 40° C.

[4] = assay type: physicochemical
Description: Analytical HPLC Method Used for Measuring Guadecitabine Purity
Column: 150×3.0 mm Luna Omega Polar C18, 1.6 μm at 40° C.
Solvent A: 0.15 mL/l formic acid in water, pH adjusted with ammonia to 3.6. Solvent B: acetonitrile Gradient program: […]
Example 23: Comparison of Guadecitabine Sodium Form A Stability in Water at 25° C. and Methanol Water (9/1 v/v) at 40° C.
In water stability of guadecitabine sodium form A was measured as follows.
Instrument method: autosampler temp. was set to 25° C. 10 mg of guadecitabine sodium form A was weighted in 2-mL vial in glovebox and 1 mL of water was added to have concentration exactly 10 mg/mL. Sample was injected freshly after preparation (0 min), 20 min after preparation (20 min) and afterwards every 40 min (duration of single analysis run).

Nc1ncn([C@H]2C[C@H](O)[C@@H](CO)O2)c(=O)n1 [Decitabine]
stability in aqueous media [1]: unstable

Nc1ncn([C@H]2C[C@H](OP(=O)(O)OC[C@H]3O[C@@H](n4cnc5c(=O)[nH]c(N)nc54)C[C@@H]3O)[C@@H](CO)O2)c(=O)n1 [guadecitabine, [(2R,3S,5R)-5-(2-amino-6-oxo-3H-purin-9-yl)-3-hydroxyoxolan-2-yl]methyl [(2R,3S,5R)-5-(4-amino-2-oxo-1,3,5-triazin-1-yl)-2-(hydroxymethyl)oxolan-3-yl] hydrogen phosphate]
stability in aqueous phase [2]: not stable
guadecitabine degradation ([3]; in methanol): significantly suppressed

Nc1ncn([C@H]2C[C@H](OP(=O)([O-])OC[C@H]3O[C@@H](n4cnc5c(=O)[nH]c(N)nc54)C[C@@H]3O)[C@@H](CO)O2)c(=O)n1.[Na+] [guadecitabine sodium]
HPLC contents (%) Degradant 2a [4]: <0.05%
HPLC contents (%) Degradant 2b [4]: <0.05%
HPLC contents (%) Degradant 2c [4]: 0.14%
HPLC contents (%) Degradant 2d [4]: 0.05%
HPLC contents (%) guadecitabine sodium ([4]; Solution in DMSO, no time point (reference)): 99.82%
HPLC contents (%) guadecitabine sodium ([4]; Solution in water, 10 mg/mL, 25° C., injection time point 0 min): 99.80%
HPLC contents (%) guadecitabine sodium ([4]; Solution in water, 10 mg/mL, 25° C., injection time point 20 min): 99.63%
HPLC contents (%) guadecitabine sodium ([4]; Solution in water, 10 mg/mL, 25° C., injection time point 40 min): 99.39%
HPLC contents (%) guadecitabine sodium ([4]; Solution in water, 10 mg/mL, 25° C., injection time point 80 min): 99.02%
HPLC contents (%) guadecitabine sodium ([4]; Solution in water, 10 mg/mL, 25° C., injection time point 120 min): 98.58%
HPLC contents (%) guadecitabine sodium ([4]; Solution in water, 10 mg/mL, 25° C., injection time point 160 min): 98.16%
HPLC contents (%) guadecitabine sodium ([4]; Solution in water, 10 mg/mL, 25° C., injection time point 200 min): 97.56%
HPLC contents (%) guadecitabine sodium ([4]; Solution in water, 10 mg/mL, 25° C., injection time point 240 min): 97.11%
HPLC contents (%) guadecitabine sodium ([4]; Solution in water, 10 mg/mL, 25° C., injection time point 280 min): 96.29%
HPLC contents (%) Degradant 2a [3]: <0.05%
HPLC contents (%) Degradant 2b [3]: <0.05%
HPLC contents (%) Degradant 2c [3]: 0.14%
HPLC contents (%) Degradant 2d [3]: 0.10%
HPLC contents (%) guadecitabine sodium ([3]; Suspension in methanol/water (9/1), 40° C., injection time point 240 min): 99.76%
